Source: US11229683B2, “Hematopoietic growth factor proteins and analogs thereof and angiotensin converting enzyme inhibitors for treatment of radiation exposure” (priority 2015, dated 2022)
Like-named read-outs stand apart in the source and are kept apart here. Marks after values point to notes of the source that are not given here.

Legend:
irradiated rats [1] = assay: Rat 13 Gy leg-out TBI model, renal injury by blood urea nitrogen (BUN); format: in vivo; conditions: surviving animals, TC day 1, Lisinopril Day 7 to Day 150
Method: Euthanized animals are classified as non-survivors.
Blood urea nitrogen (BUN) measurements were made as a separate measure of kidney damage in surviving animals on Days 90, 120 and 150 (Table 8). BUN measurements are a commonly used measure of kidney function, with higher BUN numbers indicating greater kidney damage. Normal rat BUN measurements for non-irradiated rats are in the 17-22 mg/dL range. Rats were euthanized if BUN measurements were at or above 120 mg/dL.

irradiated rats [2] = assay: Rat 13 Gy leg-out TBI model, transthoracic echocardiography on day 50, Example 8; format: in vivo
Method: Non-irradiated rats (0 Gy) served as controls. On day 50, the rats were anesthetized with isoflurane (2%) and transthoracic echocardiography was performed. Measurements were obtained by an investigator who was blinded to the treatment groups. Animals were studied in the left lateral decubitus position and data was recorded with a Vivid 7 echocardiographic system (General Electric, Waukesha, Wis.).

lethally irradiated rats = conditions: 13 Gy leg-out TBI, TC sc day 1, Lisinopril in drinking water Day 7 to Day 150, 12 rats/group
From the text: Female WAG/RijCmcr rats were irradiated with 13 Gy at 12 weeks of age when they weighed ˜150-170 gm. Briefly, animals were immobilized in a plexiglass jig to avoid anesthetic. One hind leg was shielded with a one-quarter inch thick lead block. Shielding one leg from radiation exposure is sufficient to prevent death from hematopoietic failure during the following 40 days. […] The x-ray system was operated at 320 kVp and 13 mAs with a half value layer of 1.4 mm Cu. During the irradiation, each rat was confined in a separate chamber in a plastic jig, which allowed irradiation of 2 rats simultaneously. The chambers were placed on a plane perpendicular to the beam direction with distance from source to the midline of rats to be set at 33.5 cm. Collimator jaws were used to define a radiation field large enough to cover both chambers with adequate margin (at least 2 cm). Irradiated rats were given supportive care between days 2 to 14 post-TBI to mitigate acute gastrointestinal injury. This supportive care consisted of sc injections of saline (40 mL/kg/day) from days 3 to 7 post-TBI and the antibiotic enrofloxacin (10 mg/kg/day), given orally in the drinking water from days 2 to 14 post-TBI.
This study comprised four test groups, each consisting of 12 rats (Table 7). Rats received a single sc injection of vehicle solution (10 mM sodium phosphate, 4% mannitol, 1% sucrose pH 6.2) or an HGF triple combination (TC) at 24+4/−0 hr post-irradiation. […] Morbidity and survival of the animals were measured over time. Rats were euthanized if their body condition reached IACUC criteria for euthanasia or if their blood urea nitrogen (BUN) was measured at or above 120 mg/mL, which is an indicator if severe kidney damage. Euthanized animals are classified as non-survivors. Death prior to day 40 in this model typically occurs as a result of hematopoietic failure (H-ARS) or gastrointestinal injury (GI-ARS). Death between days 40 and 90 typically occurs as a result of lung damage, particularly pneumonitis. Death between days 90 and 150 typically occurs as a result of kidney damage (nephropathy). Morbidity at Day 40, 90 and 150 were chosen as representative times for death due to H-ARS, lung damage, and a combination of lung damage and kidney damage, respectively.

LD95/30 irradiated mice = assay: Mouse ARS survival assay, LD95/30 (927 cGy), Example 1; format: in vivo; conditions: LD95/30 (927 cGy) TBI, single sc injection 24 h post-irradiation; for % 30-d survival: PEG IL-11 0.3 mg/kg, PEG-G-CSF 1 mg/kg, PEG muGM-CSF 1 mg/kg, 40 mice/group
Method: The efficacy of three individual HGFs and all possible combinations of the 3 proteins to increase 30 day survival of lethally irradiated mice was tested at an LD95/30 radiation dose (a dose of radiation expected to cause death to 95% of an exposed population within 30 days). […] Male and female mice (Mus musculus, C57BL/6 strain), aged 10-12 weeks upon study initiation, were used for these studies. There were 40 animals per treatment group, 50% males and 50% females. A dose of radiation equal to the LD95/30 was delivered as a single uniform total body dose (TBD) of gamma radiation from a ^137Cs radiation source (GammaCell 40; Nordion International, Kanata, Ontario, Canada) at an exposure rate of 98.575-100.3±5.01 cGy/minute. Pilot studies determined the LD95/30 dose of radiation to be 927 cGy. […] Each group of mice irradiated together in the same irradiation pie was roughly divided among all groups to ensure that each group received the same irradiation exposure conditions. After irradiation mice were randomized to one of the Test Article or Control Article groups. Mice were provided acidified water (pH 2.0-3.0) in bottles and fed certified commercial extruded laboratory animal chow (HARLAN 2018SXC) throughout the study. On day 4 post-exposure, mice were provided acidified autoclaved water in bottles and also in wetted chow (HARLAN 2018SXC) in a petri dish set in the bottom of the cage. Mice were monitored for survival once per day until signs of early euthanasia appear, then twice per day until day 30. Mice meeting predetermined euthanasia criteria were euthanized.
Complete Blood Cell Counts (CBCs) with differential and peripheral smears were performed at baseline (pre-irradiation) and on days 10, 20, 25, and 30 post-TBI. Two randomly selected mice/group in different cages were bled on day −3 to day −1 prior to TBI for a total of 12 baseline CBCs. Four randomly selected mice/group were bled on days 10, 20, 25, and 30 post-TBI. When possible, the same number of males and females in each group and in separate cages were selected for bleeding. […]

[3] = system: LD65/30 irradiated one year old mice; assay: Mouse ARS survival assay in one year old mice, 10 Gy (LD65/30), Example 4; format: in vivo; conditions: single sc injection 24 h post-TBI
From the text: One year old mice are a model for geriatric humans, which often respond differently to radiation exposure and drugs. One year old mice were exposed to different doses of radiation to construct a radiation dose response curve. […] The LD50/30 for one year old mice was 959 cGy, compared to 853 cGy for 12 week old mice. […] Other study details were as described in Example 1 and in Plett et al. (Plett, P A, et al. (2012) Establishing a murine model of the Hematopoietic Syndrome of the Acute Radiation Syndrome. Health Physics 103: 343-355; Plett, P. A., et al. (2014) PEGylated G-CSF (BBT-015), GM-CSF (BBT-007), and IL-11 (BBT-059) analogs enhance survival and hematopoietic cell recovery in a mouse model of the Hematopoietic Syndrome of the Acute Radiation Syndrome. Health Physics Journal 106: 7-20). Mice received one sc injection of the individual test proteins or all possible combinations of the test proteins 24+4/−0 hours post-TBI. Doses of the drugs administered were 1 mg/kg for PEG-G-CSF, 1 mg/kg for PEG-murine GM-CSF, and 0.3 mg/kg for PEG-IL-11.

irradiated mice = assay: Mouse ARS survival assay, PEG-muGM-CSF, 853 or 872 cGy, Example 5; format: in vivo; conditions: for % 30-d survival: listed as PEG-muGM-CSF, 1 mg/kg; for # survivors/total mice: 30 days
Method: At the higher 872 cGy radiation dose, 70% of mice treated once with PEG-muGM-CSF at 24 h post-TBI were still alive at 30 days, compared to 10% of vehicle-treated mice.

LD65/30 irradiated mice = assay: Mouse ARS survival assay, LD65/30 (872 cGy), Example 10; format: in vivo; conditions: single sc injection 24 h post-irradiation
Method: The efficacy of three individual HGFs and all possible combinations of the 3 proteins to increase 30 day survival of lethally irradiated mice was tested at an LD65/30 radiation dose (a dose of radiation expected to cause death to 65% of an exposed population within 30 days). This experiment was performed as described in Example 1 except that the radiation dose used was 872 cGy and there were 20 mice per test group (10 males/10 females). The three HGFs were the same ones used in Example 1.

lethally irradiated mice = conditions: single sc injection; cited from earlier work
[4] = Lisinopril Day 7 to Day 50, mean ± SD, 8 rats
[5] = 853 cGy, 1 mg/kg single sc at 24 h post-TBI
[6] = 872 cGy, 1 mg/kg single sc at 24 h post-TBI

## NCCCC[C@H](N[C@@H](CCc1ccccc1)C(=O)O)C(=O)N1CCC[C@H]1C(=O)O [Lisinopril]
Irradiated rats [1]
  BUN Day 120, median (20th-80th percentile): 23 (20-24) * mg/dL
  BUN Day 150, median (20th-80th percentile): 25 (22-27) ** mg/dL
Irradiated rats [2]; [4]
  Cardiac Output: 170.1 ± 36.4 mL/min
  End Systolic Volume: 0.125 ± 0.04 mL
  End-Diastolic Volume: 0.585 ± 0.08 mL
  Left Ventricle Internal Diameter systole: 0.364 ± 0.03 cm
  Left Ventricle Mass: 0.919 ± 0.04 grams
  Left Ventricle Posterior Wall diastole: 0.109 ± 0.01 cm
  Left Ventricular Internal Dimension (diastole): 0.57 ± 0.17 cm
  Stroke volume: 0.460 ± 0.06 mL
Irradiated rats [2]; Lisinopril on days 7 to 50
  radiation-induced changes to heart parameters: prevented or reduced radiation-induced changes
Lethally irradiated rats
  Survival (%) Day 40: 100%
  Survival (%) Day 150: 92%
Lethally irradiated rats; listed as Vehicle + Lisinopril
  Survival (%) Day 90: 92%
Lethally irradiated rats; listed as Vehicle plus Lisinopril
  Survival (%) Day 90: 100%

B1: PEG GM-CSF: the murine BBT-007 GM-CSF homolog T3C modified with a 40 kDa-PEG (protein, UniProt P01587 18-141, looked up, variant T3C)
Granulocyte-macrophage …: APCRSPITVTRPWKHVEAIKEALNLLDDMPVTLNEEVEVVSNEFSFKKLTCVQTRLKIFEQGLRGNFTKLKGALNMTASYYQTYCPPTPETDCETQVTTYADFIDSLKTFLTDIPFECKKPGQK
modifications: 40 kDa PEG
notes: the murine BBT-007 GM-CSF homolog T3C modified with a 40 kDa-PEG
LD95/30 irradiated mice; 30 days
  # survivors/total mice: 13/40
LD95/30 irradiated mice
  % 30-d survival: 32.5%
LD95/30 irradiated mice; listed as PEG-GM-CSF
  % 30-d survival: 33%
[3]; 30 days
  # survivors/total mice: 11/20
[3]; PEG IL-11 0.3 mg/kg, PEG-G-CSF 1 mg/kg, PEG muGM-CSF 1 mg/kg
  % 30-d survival: 55%
Irradiated mice; 853 and 872 cGy pooled, 1 mg/kg single sc at 24 h post-TBI
  % of mice that survived 30 days, pooled data from the two radiation doses: 77.5%
Irradiated mice; [5]
  % 30-d survival: 85%
  # survivors/total mice: 17/20
Irradiated mice; [6]
  % 30-d survival: 70%
  # survivors/total mice: 14/20
Irradiated mice; day 20 post-TBI, 853 and 872 cGy
  hematopoietic recovery (CBC) vs vehicle: accelerated hematopoietic recovery
LD65/30 irradiated mice; 30 days
  # survivors/total mice: 14/20
LD65/30 irradiated mice; PEG IL-11 0.3 mg/kg, PEG-G-CSF 1 mg/kg, PEG muGM-CSF 1 mg/kg, 20 mice/group
  % 30-d survival: 70%

B2: muGM-CSF: non-long-acting murine GM-CSF (protein, UniProt P01587 18-141, looked up)
Granulocyte-macrophage …: APTRSPITVTRPWKHVEAIKEALNLLDDMPVTLNEEVEVVSNEFSFKKLTCVQTRLKIFEQGLRGNFTKLKGALNMTASYYQTYCPPTPETDCETQVTTYADFIDSLKTFLTDIPFECKKPGQK
Lethally irradiated mice
  30-day survival of lethally irradiated mice: does not improve 30-day survival
